# Read-outs that look alike come from different tables or passages of the source.
# Columns and labels:
# Type in all cases: in vivo
# [1] = test system: Uropathogenic E. coli EC200; test: Murine kidney infection model, uropathogenic E. coli EC200; details: Escherichia coli, po, 36 h, BALB/c mice, read-out: EC200 UTI PO, log10 reduction in CFUs in the kidney versus untreated controls
# [2] = test system: S. aureus Smith (ATCC 13709); test: Mouse systemic infection (septicemia) model, S. aureus Smith; details: Staphylococcus aureus, CD-1 female mice; for ED50: ATCC13709, dose that prevents 50% of the mice from death, 48 hours
# Outline: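 Female CD-1 mice (18-22 g) infected IP with an inoculum lethal to all within 24–48 h. Compound given 1 h post-infection IV ([…]) or PO ([…]), typically six mice per dose group; survival followed for 48 h and PD50 (mg/kg) derived from 48 h survival.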
# S. aureus ATCC 13709 = test: Neutropenic thigh model; details: neutropenic female CD-1 mice, IV, doses ranging 0.3 to 30 or 0.3 to 20 mg/kg, 24 hours post treatment
# Experimental: Neutropenic Thigh Model Female CD-1 mice were pre-treated with cyclophosphamide to render the mice neutropenic. Mice were infected with S. aureus ATCC 13709 via injection of 0.1 ml into the right thigh muscle of each mouse. One and a half hours post infection mice were treated IV with test compounds in doses ranging from 0.3 to 30 mg/kg or 0.3 to 20 mg/kg. Four mice were treated with each drug concentration. Twenty-four hours post treatment, mice were euthanized by CO2 inhalation. The right thighs of the mice were aseptically removed, weighed, homogenized, serially diluted, and plated on TSA medium. The plates were incubated overnight at 37° C. in 5% CO2. Colony forming units per gram of thigh was calculated by enumerating the plated colonies then adjusting for serial dilutions and the weight of the thigh.
# [3] = Pharmacokinetic studies in rats; details: male Sprague Dawley rats
# Outline: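 Fasted (18 h) male Sprague Dawley rats, 3 per group, dosed 1 mg/kg IV via jugular vein or […] by oral gavage. Ten plasma samples per route to 24 h, quantified by LC/MS/MS with internal standard. AUC, Cmax, CL, Vss and %F reported ±SD.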
smiles,measurement,setting,value
CN(C)[C@@H]1C(O)=C(C(N)=O)C(=O)[C@@]2(O)C(O)=C3C(=O)c4c(O)cc(CN(C)C(C)(C)C)c(F)c4C[C@H]3C[C@@H]12 [Compound S2-4-25],log reduction at 2 mg/kg,[1]; PO 2 mg/kg at 12 and 24 hours post infection,2.78
same,log reduction at 3 mg/kg,[1]; PO @ 3 mpk,3.63
same,responders at 3 mg/kg,"[2]; ATCC13709, iv, 48 h, IV 3 mg/kg one hour post infection, survival at 48 hours, read-out: SA Smith septicemia survival IV (3 mg/kg)",100%
same,responders at 30 mg/kg,"[2]; ATCC13709, po, 48 h, PO 30 mg/kg one hour post infection, survival at 48 hours, read-out: SA Smith septicemia survival PO (30 mg/kg)",100%
same,ED50,"[2]; IV, read-out: SA Smith septicemia PD50 IV",0.35 mg/kg
same,ED50,"[2]; PO, read-out: SA Smith septicemia PD50 PO",1.4 mg/kg
same,log10 REDUCTION in colony forming units versus untreated control group (thigh),S. aureus ATCC 13709,4.1 log10
same,"12 h urine, IV Rat PK","[3]; IV 1 mg/kg, urine, 12 h",12 h urine 11 ug/mL
same,clearance,"[3]; rat, plasma, fasted, IV 1 mg/kg, read-out: Cl, IV Rat PK",19.4 mL/min/kg
same,bioavailability,"[3]; rat, plasma, fasted, oral 10 mg/kg vs IV 1 mg/kg, read-out: % F (oral bioavailability), Oral Rat PK",9.1%
same,AUC,"[3]; rat, fasted, IV 1 mg/kg, plasma, read-out: AUC, IV Rat PK",838 ng·h/mL
same,Cmax,"[3]; rat, fasted, IV 1 mg/kg, plasma, read-out: Cmax, IV Rat PK",214 ng/mL
same,AUC,"[3]; rat, fasted, oral gavage 10 mg/kg, plasma, read-out: AUC, Oral Rat PK",826 ng·h/mL

# Reference: patent US9315451B2, “Tetracycline compounds” (priority 2009, dated 2016)
